Data from PubChem BioAssay AID1259411 (Chemical Carcinogenesis Research Information System (CCRIS), 2018).
Active and inactive are the calls of the source. How the calls were made is not given here.

Tested on: rodent carcinogenicity bioassays, tumor incidence
Assay: CCRIS carcinogenicity studies
In short: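 Archive of carcinogenicity, mutagenicity, tumor promotion and tumor inhibition results drawn from journals, NCI reports and other sources, expert-reviewed; covers 1985-2011 and is no longer updated.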

CCN(CC)C(=O)N(C)N=O
carcinogen call (Species: HAMSTER, Strain/Sex: SYRIAN/FEMALE, Route: SUBCUTANEOUS, Dose: 0, 7.75, 14.15, 28.3, 56.6 MG/KG IN 0.1 ML OLIVE OIL 1/WK FOR 52 WK (STUDY DURATION: LIFESPAN), Dose: 0, 7.75, 14.15, 28.3, 56.6 MG/KG IN 0.1 ML OLIVE OIL 1/WK FOR 52 WK (STUDY DURATION: LIFESPAN), Tumor Site: Type of Lesion: NASAL CAVITY: SQUAMOUS CELL CARCINOMA, SPLEEN: HEMANGIOENDOTHELIOMA, FORESTOMACH: SQUAMOUS CELL CARCINOMA, PAPILLOMA, Tumor Site: Type of Lesion: NASAL CAVITY: SQUAMOUS CELL CARCINOMA, SPLEEN: HEMANGIOENDOTHELIOMA, FORESTOMACH: SQUAMOUS CELL CARCINOMA, PAPILLOMA): active; positive | carcinogen call (Species: HAMSTER, Strain/Sex: SYRIAN/MALE, Route: GAVAGE, Dose: 0, 40 MG/ML ((0.2 ML OF A SOLUTION IN ETHYL ACETATE/CORN OIL (1:2)) 1/WK FOR 25 WK (STUDY DURATION: LIFE SPAN), Tumor Site: Type of Lesion: LIVER: HEMANGIOSARCOMA, CHOLANGIOMA OR CARCINOMA, SPLEEN: HEMANGIOSARCOMA, FORESTOMACH: SQUAMOUS CELL CARCINOMA OR PAPIL, Tumor Site: Type of Lesion: LIVER: HEMANGIOSARCOMA, CHOLANGIOMA OR CARCINOMA, SPLEEN: HEMANGIOSARCOMA, FORESTOMACH: SQUAMOUS CELL CARCINOMA OR PAPIL): active; positive | carcinogen call (Species: HAMSTER, Strain/Sex: SYRIAN/MALE, Route: SUBCUTANEOUS, Dose: 0, 7.75, 14.15, 28.3, 56.6 MG/KG IN 0.1 ML OLIVE OIL 1/WK FOR 52 WK (STUDY DURATION: LIFESPAN), Dose: 0, 7.75, 14.15, 28.3, 56.6 MG/KG IN 0.1 ML OLIVE OIL 1/WK FOR 52 WK (STUDY DURATION: LIFESPAN), Tumor Site: Type of Lesion: NASAL CAVITY: SQUAMOUS CELL CARCINOMA, SPLEEN: HEMANGIOENDOTHELIOMA, FORESTOMACH: SQUAMOUS CELL CARCINOMA, PAPILLOMA, Tumor Site: Type of Lesion: NASAL CAVITY: SQUAMOUS CELL CARCINOMA, SPLEEN: HEMANGIOENDOTHELIOMA, FORESTOMACH: SQUAMOUS CELL CARCINOMA, PAPILLOMA): active; positive

FC(F)(Cl)Cl
carcinogen call (Species: MOUSE, Strain/Sex: SWISS/FEMALE, Route: INHALATION, Dose: 0, 1000, 5000 PPM 4 HR/D 5 D/WK FOR 78 WK (STUDY DURATION: LIFETIME), Dose: 0, 1000, 5000 PPM 4 HR/D 5 D/WK FOR 78 WK (STUDY DURATION: LIFETIME)): inactive; negative | carcinogen call (Species: MOUSE, Strain/Sex: SWISS/MALE, Route: INHALATION, Dose: 0, 1000, 5000 PPM 4 HR/D 5 D/WK FOR 78 WK (STUDY DURATION: LIFETIME), Dose: 0, 1000, 5000 PPM 4 HR/D 5 D/WK FOR 78 WK (STUDY DURATION: LIFETIME)): inactive; negative | carcinogen call (Species: RAT, Strain/Sex: SPRAGUE-DAWLEY/FEMALE, Route: INHALATION, Dose: 0, 1000, 5000 PPM 4 HR/D 5 D/WK FOR 104 WK (STUDY DURATION: LIFETIME), Dose: 0, 1000, 5000 PPM 4 HR/D 5 D/WK FOR 104 WK (STUDY DURATION: LIFETIME)): inactive; negative | carcinogen call (Species: RAT, Strain/Sex: SPRAGUE-DAWLEY/FEMALE, Route: INHALATION, Dose: 0, 1000, 5000 PPM IN AIR 4 HR/D 5 D/WK FOR 104 WK (STUDY DURATION: LIFETIME), Dose: 0, 1000, 5000 PPM IN AIR 4 HR/D 5 D/WK FOR 104 WK (STUDY DURATION: LIFETIME), Tumor Site: Type of Lesion: [BRAIN WAS ONLY SITE EVALUATED]): inactive; negative | carcinogen call (Species: RAT, Strain/Sex: SPRAGUE-DAWLEY/MALE, Route: INHALATION, Dose: 0, 1000, 5000 PPM 4 HR/D 5 D/WK FOR 104 WK (STUDY DURATION: LIFETIME), Dose: 0, 1000, 5000 PPM 4 HR/D 5 D/WK FOR 104 WK (STUDY DURATION: LIFETIME)): inactive; negative | carcinogen call (Species: RAT, Strain/Sex: SPRAGUE-DAWLEY/MALE, Route: INHALATION, Dose: 0, 1000, 5000 PPM IN AIR 4 HR/D 5 D/WK FOR 104 WK (STUDY DURATION: LIFETIME), Dose: 0, 1000, 5000 PPM IN AIR 4 HR/D 5 D/WK FOR 104 WK (STUDY DURATION: LIFETIME), Tumor Site: Type of Lesion: [BRAIN WAS ONLY SITE EVALUATED]): inactive; negative

ClC(Cl)=C(Cl)C(Cl)=C(Cl)Cl
carcinogen call (Species: RAT, Strain/Sex: SPRAGUE-DAWLEY/MALE,FEMALE, Route: ORAL, Dose: 0.2, 2.0, 20 MG/KG/DAY IN DIET, Dose: 0.2, 2.0, 20 MG/KG/DAY IN DIET, Tumor Site: Type of Lesion: KIDNEY: RENAL TUBULAR ADENOMA, ADENOCARCINOMA): active; positive

O=C(O)CC[N+](=O)[O-]
carcinogen call (Species: MOUSE, Strain/Sex: B6C3F1/FEMALE, Route: GAVAGE, Dose: 0, 0.375, 0.75 MG/ANIMAL/DAY FOR 104 WK (STUDY DURATION: 104-105 WK), Dose: 0, 0.375, 0.75 MG/ANIMAL/DAY FOR 104 WK (STUDY DURATION: 104-105 WK)): inactive; negative | carcinogen call (Species: MOUSE, Strain/Sex: B6C3F1/MALE, Route: GAVAGE, Dose: 0, 0.375, 0.75 MG/ANIMAL/DAY FOR 104 WK (STUDY DURATION: 104-105 WK), Dose: 0, 0.375, 0.75 MG/ANIMAL/DAY FOR 104 WK (STUDY DURATION: 104-105 WK)): inactive; negative | carcinogen call (Species: RAT, Strain/Sex: F344/FEMALE, Route: GAVAGE, Dose: 0, 0.6, 1.2 MG/ANIMAL/DAY FOR 110 WK (STUDY DURATION: 111 WK), Dose: 0, 0.6, 1.2 MG/ANIMAL/DAY FOR 110 WK (STUDY DURATION: 111 WK)): inactive; negative | carcinogen call (Species: RAT, Strain/Sex: F344/MALE, Route: GAVAGE, Dose: 0, 0.425, 0.85 MG/ANIMAL/DAY FOR 110 WK (STUDY DURATION: 111 WK), Dose: 0, 0.425, 0.85 MG/ANIMAL/DAY FOR 110 WK (STUDY DURATION: 111 WK), Tumor Site: Type of Lesion: LIVER: HEPATOCELLULAR NEOPLASM, PANCREAS: ISLET CELL ADENOMA): equivocal

C=CCN(N=O)C(N)=O
carcinogen call (Species: RAT, Strain/Sex: F344/FEMALE, Route: GAVAGE, Dose: 0, 13 MG/ML (TOTAL DOSE 0; 1.2 MMOL) IN 2 ML ETHYL ACETATE AND CORN OIL (1:2) 2/WK FOR 30 WK (STUDY DURATION: LIFETIME), Dose: 0, 13 MG/ML (TOTAL DOSE 0; 1.2 MMOL) IN 2 ML ETHYL ACETATE AND CORN OIL (1:2) 2/WK FOR 30 WK (STUDY DURATION: LIFETIME), Tumor Site: Type of Lesion: FORESTOMACH: SQUAMOUS CELL CARCINOMA, MAMMARY GLAND: TUMOR): active; positive | carcinogen call (Species: RAT, Strain/Sex: F344/FEMALE, Route: GAVAGE, Dose: 0, 13 MG/ML IN 0.2 ML ETHYL ACETATE AND CORN OIL 2/WK FOR 30 WK (STUDY DURATION: LIFESPAN), Tumor Site: Type of Lesion: FORESTOMACH: TUMOR, MAMMARY GLAND: TUMOR): active; positive | carcinogen call (Species: RAT, Strain/Sex: F344/MALE, Route: GAVAGE, Dose: 0, 13 MG/ML (TOTAL DOSE 0; 1.2 MMOL) IN 2 ML ETHYL ACETATE AND CORN OIL (1:2) 2/WK FOR 30 WK (STUDY DURATION: LIFETIME), Dose: 0, 13 MG/ML (TOTAL DOSE 0; 1.2 MMOL) IN 2 ML ETHYL ACETATE AND CORN OIL (1:2) 2/WK FOR 30 WK (STUDY DURATION: LIFETIME), Tumor Site: Type of Lesion: FORESTOMACH: SQUAMOUS CELL CARCINOMA, LUNG: TUMOR, COLON: TUMOR, ZYMBAL GLAND: TUMOR, Tumor Site: Type of Lesion: FORESTOMACH: SQUAMOUS CELL CARCINOMA, LUNG: TUMOR, COLON: TUMOR, ZYMBAL GLAND: TUMOR): active; positive | carcinogen call (Species: RAT, Strain/Sex: F344/MALE, Route: GAVAGE, Dose: 0, 13 MG/ML IN 0.2 ML ETHYL ACETATE AND CORN OIL 2/WK FOR 30 WK (STUDY DURATION: LIFESPAN), Tumor Site: Type of Lesion: FORESTOMACH: TUMOR, LUNG: COLON: TUMOR, ZYMBAL GLAND: TUMOR, Tumor Site: Type of Lesion: FORESTOMACH: TUMOR, LUNG: COLON: TUMOR, ZYMBAL GLAND: TUMOR): active; positive

c1ccc2cc3c4ccccc4c4ccccc4c3cc2c1
carcinogen call (Species: MOUSE, Strain/Sex: B6C3F1/MALE, Route: INTRAPERITONEAL, Dose: 0, 400 NMOL IN 35 µL DMSO ON DAYS 1 (1/7 TOTAL DOSE), 8 (2/7 TOTAL DOSE), AND 15 (4/7 TOTAL DOSE) AFTER BIRTH (STUDY DUR): inactive; negative
